Source: the RepoRT retention time repository (doi:10.1016/j.jchromb.2020.122105)

How the values were obtained:
Settings in all cases: stereoisomer not certain
[1] = RP, Waters CORTECS T3, 100 × 2.1 mm, 2.7 µm, 0.2 mL/min, estimated dead time 1.1 min; A: water + 0.1% formic acid, pH 3; B: methanol + 0.1% formic acid, pH 3; gradient (min/%B) 0/0 1/0 6/5 30/100 35/100 35.1/0 40/0
[2] = RP, Waters ACQUITY UPLC BEH C18, 100 × 2.1 mm, 1.7 µm, 0.1 mL/min, estimated dead time 2.2 min; A: water + 0.1% formic acid, pH 3; B: methanol + 0.1% formic acid, pH 3; gradient (min/%B) 0/5 5/5 25/100 30/100 30.1/5 35/5
[3] = RP, Waters CORTECS T3, 100 × 2.1 mm, 2.7 µm, 0.3 mL/min, estimated dead time 0.73 min; A: water + 0.1% formic acid, pH 3; B: methanol + 0.1% formic acid, pH 3; gradient (min/%B) 0/5 5/5 25/100 30/100 30.1/5 35/5
[4] = RP, Waters CORTECS T3, 100 × 2.1 mm, 2.7 µm, 0.15 mL/min, estimated dead time 1.5 min; A: water + 0.1% formic acid, pH 3; B: methanol + 0.1% formic acid, pH 3; gradient (min/%B) 0/0 1/0 6/5 30/100 35/100 35.1/0 40/0
[5] = RP, Waters CORTECS T3, 100 × 2.1 mm, 2.7 µm, 0.3 mL/min, estimated dead time 0.73 min; A: water + 0.1% formic acid, pH 3; B: methanol + 0.1% formic acid, pH 3; gradient (min/%B) 0/5 5/5 25/95 25.1/100 35/100 35.1/5 45/5
[6] = RP, Waters CORTECS T3, 100 × 2.1 mm, 2.7 µm, 0.3 mL/min, estimated dead time 0.73 min; A: water + 0.1% formic acid, pH 3; B: methanol + 0.1% formic acid, pH 3; gradient (min/%B) 0/0 1/0 6/5 30/100 35/100 35.1/0 40/0
[7] = RP, Waters CORTECS T3, 100 × 2.1 mm, 2.7 µm, 0.1 mL/min, estimated dead time 2.2 min; A: water + 0.1% formic acid, pH 3; B: methanol + 0.1% formic acid, pH 3; gradient (min/%B) 0/0 1/0 6/5 30/100 35/100 35.1/0 40/0
[8] = RP, Waters CORTECS T3, 100 × 2.1 mm, 2.7 µm, 0.25 mL/min, estimated dead time 0.88 min; A: water + 0.1% formic acid, pH 3; B: methanol + 0.1% formic acid, pH 3; gradient (min/%B) 0/0 1/0 6/5 30/100 35/100 35.1/0 40/0
[9] = RP, Waters CORTECS T3, 100 × 2.1 mm, 2.7 µm, 0.1 mL/min, estimated dead time 2.2 min; A: water + 0.1% formic acid, pH 3; B: methanol + 0.1% formic acid, pH 3; gradient (min/%B) 0/5 5/5 25/95 25.1/100 35/100 35.1/5 45/5
[10] = RP, Waters CORTECS T3, 100 × 2.1 mm, 2.7 µm, 0.3 mL/min, estimated dead time 0.73 min; A: water + 0.1% formic acid, pH 3; B: methanol + 0.1% formic acid, pH 3; gradient (min/%B) 0/0 5/0 25/100 30/100 30.1/0 35/0
[11] = RP, Waters ACQUITY UPLC BEH C18, 100 × 2.1 mm, 1.7 µm, 0.1 mL/min, estimated dead time 2.2 min; A: water + 0.1% formic acid, pH 3; B: methanol + 0.1% formic acid, pH 3; gradient (min/%B) 0/5 5/5 25/95 25.1/100 35/100 35.1/5 45/5
[12] = as above; remark: listed apart in the source
[13] = RP, Waters CORTECS T3, 100 × 2.1 mm, 2.7 µm, 0.2 mL/min, estimated dead time 1.1 min; A: water + 0.1% formic acid, pH 3; B: methanol + 0.1% formic acid, pH 3; gradient (min/%B) 0/0 1/0 6/5 30/100 35/100 35.1/0 40/0; remark: listed apart in the source
[14] = RP, Waters ACQUITY UPLC BEH C18, 100 × 2.1 mm, 1.7 µm, 0.2 mL/min, estimated dead time 1.1 min; A: water + 0.025% formic acid + 20 mM ammonium acetate + 0.055% ammonium hydroxide, pH 7; B: methanol; gradient (min/%B) 0/5 5/5 25/100 30/100 30.1/5 35/5
[15] = RP, Waters ACQUITY UPLC BEH C18, 100 × 2.1 mm, 1.7 µm, 0.1 mL/min, estimated dead time 2.2 min; A: water + 0.1% formic acid, pH 3; B: methanol + 0.1% formic acid, pH 3; gradient (min/%B) 0/5 5/5 25/95 25.1/100 35/100 35.1/5 45/5; remark: listed apart in the source
[16] = HILIC, Merck SeQuant ZIC-HILIC, 150 × 2.1 mm, 5 µm, 0.75 mL/min, estimated dead time 0.44 min; A: water + 0.1% acetic acid + 10 mM ammonium acetate, pH 4; B: 5% water + 95% acetonitrile + 0.1% acetic acid + 10 mM ammonium acetate, pH 4; gradient (min/%B) 0/95 5/95 20/57 25/57 30/95 40/95
[17] = RP, Waters CORTECS T3, 100 × 2.1 mm, 2.7 µm, 0.15 mL/min, estimated dead time 1.5 min; A: water + 0.1% formic acid, pH 3; B: methanol + 0.1% formic acid, pH 3; gradient (min/%B) 0/5 5/5 25/95 25.1/100 35/100 35.1/5 45/5
[18] = RP, Waters CORTECS T3, 100 × 2.1 mm, 2.7 µm, 0.3 mL/min, estimated dead time 0.73 min; A: water + 0.1% formic acid, pH 3; B: methanol + 0.1% formic acid, pH 3; gradient (min/%B) 0/0 1/0 6/5 30/100 35/100 35.1/0 40/0; remark: listed apart in the source
[19] = RP, Waters ACQUITY UPLC BEH C18, 100 × 2.1 mm, 1.7 µm, 0.2 mL/min, estimated dead time 1.1 min; A: water + 0.1% formic acid, pH 3; B: methanol + 0.1% formic acid, pH 3; gradient (min/%B) 0/5 5/5 25/100 30/100 30.1/5 35/5
[20] = RP, Waters CORTECS T3, 100 × 2.1 mm, 2.7 µm, 0.3 mL/min, estimated dead time 0.73 min; A: water + 0.1% formic acid, pH 3; B: methanol + 0.1% formic acid, pH 3; gradient (min/%B) 0/0 5/0 25/100 30/100 30.1/0 35/0; remark: listed apart in the source
[21] = RP, Waters CORTECS T3, 100 × 2.1 mm, 2.7 µm, 0.25 mL/min, estimated dead time 0.88 min; A: water + 0.1% formic acid, pH 3; B: methanol + 0.1% formic acid, pH 3; gradient (min/%B) 0/5 5/5 25/95 25.1/100 35/100 35.1/5 45/5
[22] = RP, Thermo Scientific Hypercarb, 150 × 2.1 mm, 5 µm, 0.1 mL/min, estimated dead time 3.3 min; A: water + 0.1% formic acid, pH 3; B: methanol + 0.1% formic acid, pH 3; gradient (min/%B) 0/5 5/5 20/100 35/100 35.1/5 45/5
[23] = HILIC, Waters XBridge BEH Amide, 100 × 2.1 mm, 2.5 µm, 0.5 mL/min, estimated dead time 0.44 min; A: water + 0.1% acetic acid + 10 mM ammonium acetate, pH 4; B: 5% water + 95% acetonitrile + 0.1% acetic acid + 10 mM ammonium acetate, pH 4; gradient (min/%B) 0/95 5/95 20/57 25/57 30/95 40/95
[24] = RP, Waters CORTECS T3, 100 × 2.1 mm, 2.7 µm, 0.2 mL/min, estimated dead time 1.1 min; A: water + 0.1% formic acid, pH 3; B: methanol + 0.1% formic acid, pH 3; gradient (min/%B) 0/5 5/5 25/95 25.1/100 35/100 35.1/5 45/5
[25] = HILIC, Merck SeQuant ZIC-HILIC, 150 × 2.1 mm, 5 µm, 0.75 mL/min, estimated dead time 0.44 min; A: water + 10 mM ammonium formate, pH 6; B: 5% water + 95% acetonitrile + 10 mM ammonium formate, pH 6; gradient (min/%B) 0/95 5/95 20/57 25/57 30/95 40/95
[26] = RP, Waters ACQUITY UPLC BEH C18, 100 × 2.1 mm, 1.7 µm, 0.2 mL/min, estimated dead time 1.1 min; A: water + 0.025% formic acid + 20 mM ammonium acetate + 0.055% ammonium hydroxide, pH 7; B: methanol; gradient (min/%B) 0/5 5/5 25/100 30/100 30.1/5 35/5; remark: listed apart in the source
[27] = RP, Waters CORTECS T3, 100 × 2.1 mm, 2.7 µm, 0.2 mL/min, estimated dead time 1.1 min; A: water + 0.045% formic acid + 0.11% ammonium hydroxide, pH 7; B: methanol; gradient (min/%B) 0/5 5/5 25/95 25.1/100 35/100 35.1/5 45/5

Compound: NC(Cc1ccc(Oc2cc(I)c(O)c(I)c2)c(I)c1)C(=O)O (stereo not given) [3,3',5'-TRIIODOTHYRONINE]
- LC retention time [1]: 21.4 min
- LC retention time [2]: 21.6 min
- LC retention time [3]: 17.3 min
- LC retention time [4]: 22.5 min
- LC retention time [5]: 17.9 min
- LC retention time [6]: 20.2 min
- LC retention time [7]: 19.1 min
- LC retention time [8]: 20.8 min
- LC retention time [9]: 21.8 min
- LC retention time [10]: 17.9 min
- LC retention time [11]: 22.2 min
- LC retention time [12]: 22.2 min

Compound: O=C(O)c1ccc(=O)[nH]c1 [6-HYDROXYNICOTINATE]
- LC retention time [1]: 5.13 min
- LC retention time [2]: 6.36 min
- LC retention time [3]: 2.27 min
- LC retention time [4]: 6.98 min
- LC retention time [5]: 2.17 min
- LC retention time [6]: 3.45 min
- LC retention time [7]: 3.28 min
- LC retention time [8]: 4.17 min
- LC retention time [9]: 6.46 min
- LC retention time [10]: 3.6 min
- LC retention time [11]: 2.75 min
- LC retention time [12]: 6.29 min

Compound: CCC(NC(=O)CCC(N)C(=O)O)C(=O)NCC(=O)O (stereo not given) [OPHTHALMIC ACID]
- LC retention time [13]: 1.38 min
- LC retention time [14]: 1.36 min
- LC retention time [15]: 2.7 min
- LC retention time [1]: 1.38 min
- LC retention time [2]: 2.74 min
- LC retention time [3]: 0.93 min
- LC retention time [16]: 13.8 min
- LC retention time [17]: 1.78 min
- LC retention time [4]: 1.87 min
- LC retention time [18]: 0.96 min
- LC retention time [19]: 1.42 min
- LC retention time [5]: 0.9 min
- LC retention time [20]: 0.93 min
- LC retention time [21]: 1.08 min
- LC retention time [6]: 0.92 min
- LC retention time [22]: 18.5 min
- LC retention time [8]: 1.13 min
- LC retention time [23]: 14.5 min
- LC retention time [10]: 0.93 min
- LC retention time [24]: 2.74 min
- LC retention time [12]: 2.66 min

Compound: Nc1nc2nc[nH]c2c(=O)[nH]1 [GUANINE]
- LC retention time [1]: 6.86 min
- LC retention time [2]: 2.74 min
- LC retention time [3]: 2.45 min
- LC retention time [4]: 9.27 min
- LC retention time [5]: 2.38 min
- LC retention time [7]: 3.48 min
- LC retention time [8]: 5.85 min
- LC retention time [9]: 2.71 min
- LC retention time [11]: 2.66 min
- LC retention time [12]: 2.66 min

Compound: O=C(O)CCCCC1SCC2NC(=O)NC21 (stereo not given) [BIOTIN]
- LC retention time [13]: 13.7 min
- LC retention time [14]: 3.98 min
- LC retention time [15]: 15.5 min
- LC retention time [2]: 15.2 min
- LC retention time [3]: 10.7 min
- LC retention time [25]: 7.34 min
- LC retention time [16]: 8.19 min
- LC retention time [26]: 6.2 min
- LC retention time [17]: 13.3 min
- LC retention time [4]: 14.9 min
- LC retention time [18]: 12.3 min
- LC retention time [19]: 12.1 min
- LC retention time [20]: 11.7 min
- LC retention time [21]: 11.4 min
- LC retention time [22]: 30.7 min
- LC retention time [7]: 12.1 min
- LC retention time [9]: 15.3 min
- LC retention time [27]: 1.35 min
- LC retention time [10]: 11.7 min
- LC retention time [12]: 15.5 min
